Experimental findings from PMC8699473, “An Easily Expandable Multi-Drug LC-MS Assay for the Simultaneous Quantification of 57 Oral Antitumor Drugs in Human Plasma” (Cancers, 2021) are described below.

This data set is described as follows: Autosampler stability of ready for injection samples. It counts as physicochemical, human.

As for `CCN1CCN(Cc2ccc(Nc3ncc(F)c(-c4cc(F)c5nc(C)n(C(C)C)c5c4)n3)nc2)CC1` [Abemaciclib], the “Autosampler (24h, 4°C) Accuracy [%]” value is 99.5% (validation standard 2xLLOV), 89.1% (validation standard LLOV), 100.7% (validation standard MOV) and 102.6% (validation standard ULOV). Also, the “Autosampler (72h, 4°C) Accuracy [%]” value is recorded as 95.3% (validation standard 2xLLOV), 86.1% (validation standard LLOV), 96.7% (validation standard MOV) and 100.1% (validation standard ULOV).

Regarding `C[C@]12CC[C@H](O)CC1=CC[C@@H]1[C@@H]2CC[C@]2(C)C(c3cccnc3)=CC[C@@H]12` [Abiraterone], the “Autosampler (24h, 4°C) Accuracy [%]” value by setting is: (validation standard 2xLLOV) 98.9%; (validation standard LLOV) 90.8%; (validation standard MOV) 104.6%; (validation standard ULOV) 100.2%. The “Autosampler (72h, 4°C) Accuracy [%]” value (validation standard 2xLLOV) is listed as 97.9%; the “Autosampler (72h, 4°C) Accuracy [%]” value (validation standard LLOV) was determined as 94.9%; the “Autosampler (72h, 4°C) Accuracy [%]” value (validation standard MOV) was 101.6%; the “Autosampler (72h, 4°C) Accuracy [%]” value (validation standard ULOV) turned out to be 104.1%.

Regarding `CN(C)C/C=C/C(=O)Nc1cc2c(Nc3ccc(F)c(Cl)c3)ncnc2cc1O[C@H]1CCOC1` [Afatinib], the “Autosampler (24h, 4°C) Accuracy [%]” value is, setting by setting: (validation standard 2xLLOV) 103.2%; (validation standard LLOV) 91.7%; (validation standard MOV) 102.6%; (validation standard ULOV) 98.7%. In addition, the “Autosampler (72h, 4°C) Accuracy [%]” value by setting is: (validation standard 2xLLOV) 99.3%; (validation standard LLOV) 83.0%; (validation standard MOV) 103.4%; (validation standard ULOV) 99.3%.

`O=C1CN2Cc3c(ccc(Cl)c3Cl)N=C2N1` [Anagrelide]: the “Autosampler (24h, 4°C) Accuracy [%]” value reads like this: (validation standard 2xLLOV) 113.2%; (validation standard LLOV) 111.7%; (validation standard MOV) 104.6%; (validation standard ULOV) 101.8%. In addition, the “Autosampler (72h, 4°C) Accuracy [%]” value came out at 106.1% (validation standard 2xLLOV), 110.5% (validation standard LLOV), 96.8% (validation standard MOV) and 98.2% (validation standard ULOV).

Consider `CNC(=O)c1ccc(N2C(=S)N(c3cnc(C#N)c(C(F)(F)F)c3)C(=O)C23CCC3)cc1F` [Apalutamide], for which the “Autosampler (24h, 4°C) Accuracy [%]” value runs as follows: (validation standard 2xLLOV) 102.1%; (validation standard LLOV) 97.2%; (validation standard MOV) 106.8%; (validation standard ULOV) 102.6%. The “Autosampler (72h, 4°C) Accuracy [%]” value (validation standard 2xLLOV) stood at 105.1%; the “Autosampler (72h, 4°C) Accuracy [%]” value (validation standard LLOV) is recorded as 102.8%; the “Autosampler (72h, 4°C) Accuracy [%]” value (validation standard MOV) amounted to 106.0%; the “Autosampler (72h, 4°C) Accuracy [%]” value (validation standard ULOV) came to 106.5%.

With `CNC(=O)c1ccccc1Sc1ccc2c(/C=C/c3ccccn3)n[nH]c2c1` [Axitinib], the “Autosampler (24h, 4°C) Accuracy [%]” value by setting is: (validation standard 2xLLOV) 101.2%; (validation standard LLOV) 105.9%; (validation standard MOV) 102.7%; (validation standard ULOV) 100.4%. For the same compound, the “Autosampler (72h, 4°C) Accuracy [%]” value runs as follows: (validation standard 2xLLOV) 104.9%; (validation standard LLOV) 97.7%; (validation standard MOV) 100.0%; (validation standard ULOV) 99.1%.

In the case of `Cn1cnc2c(F)c(Nc3ccc(Br)cc3F)c(C(=O)NOCCO)cc21` [Binimetinib], the “Autosampler (24h, 4°C) Accuracy [%]” value reads like this: (validation standard 2xLLOV) 104.7%; (validation standard LLOV) 103.1%; (validation standard MOV) 105.0%; (validation standard ULOV) 102.1%. Moreover, the “Autosampler (72h, 4°C) Accuracy [%]” value reads like this: (validation standard 2xLLOV) 101.6%; (validation standard LLOV) 98.1%; (validation standard MOV) 95.8%; (validation standard ULOV) 102.4%.

For the compound `Cc1cc(Nc2ncc(Cl)c(Nc3ccccc3S(=O)(=O)C(C)C)n2)c(OC(C)C)cc1C1CCNCC1` [Ceritinib], the “Autosampler (24h, 4°C) Accuracy [%]” value runs as follows: (validation standard 2xLLOV) 95.1%; (validation standard LLOV) 97.1%; (validation standard MOV) 100.8%; (validation standard ULOV) 101.3%. Moreover, the “Autosampler (72h, 4°C) Accuracy [%]” value runs as follows: (validation standard 2xLLOV) 100.1%; (validation standard LLOV) 98.1%; (validation standard MOV) 103.5%; (validation standard ULOV) 106.5%.

`O=C(c1ccc(F)c(F)c1Nc1ccc(I)cc1F)N1CC(O)([C@@H]2CCCCN2)C1` [Cobimetinib]: the “Autosampler (24h, 4°C) Accuracy [%]” value runs as follows: (validation standard 2xLLOV) 100.3%; (validation standard LLOV) 94.6%; (validation standard MOV) 105.2%; (validation standard ULOV) 102.5%. Further, the “Autosampler (72h, 4°C) Accuracy [%]” value (validation standard 2xLLOV) was determined as 100.8%; the “Autosampler (72h, 4°C) Accuracy [%]” value (validation standard LLOV) is 93.0%; the “Autosampler (72h, 4°C) Accuracy [%]” value (validation standard MOV) is 103.1%; the “Autosampler (72h, 4°C) Accuracy [%]” value (validation standard ULOV) was 107.2%.

`C[C@@H](Oc1cc(-c2cnn(C3CCNCC3)c2)cnc1N)c1c(Cl)ccc(F)c1Cl` [Crizotinib]: the “Autosampler (24h, 4°C) Accuracy [%]” value reads like this: (validation standard 2xLLOV) 105.2%; (validation standard LLOV) 88.1%; (validation standard MOV) 108.4%; (validation standard ULOV) 96.5%. The “Autosampler (72h, 4°C) Accuracy [%]” value came out at 103.5% (validation standard 2xLLOV), 86.1% (validation standard LLOV), 103.8% (validation standard MOV) and 94.7% (validation standard ULOV).

Turning to `CC(C)(C)c1nc(-c2cccc(NS(=O)(=O)c3c(F)cccc3F)c2F)c(-c2ccnc(N)n2)s1` [Dabrafenib], the “Autosampler (24h, 4°C) Accuracy [%]” value (validation standard 2xLLOV) is given as 97.9%; the “Autosampler (24h, 4°C) Accuracy [%]” value (validation standard LLOV) amounted to 93.5%; the “Autosampler (24h, 4°C) Accuracy [%]” value (validation standard MOV) was 102.1%; the “Autosampler (24h, 4°C) Accuracy [%]” value (validation standard ULOV) is reported as 100.7%. Moreover, the “Autosampler (72h, 4°C) Accuracy [%]” value amounted to 99.3% (validation standard 2xLLOV), 93.1% (validation standard LLOV), 99.8% (validation standard MOV) and 101.4% (validation standard ULOV).

Consider `COc1cc2ncnc(Nc3ccc(F)c(Cl)c3)c2cc1NC(=O)/C=C/CN1CCCCC1` [Dacomitinib], for which the “Autosampler (24h, 4°C) Accuracy [%]” value by setting is: (validation standard 2xLLOV) 102.5%; (validation standard LLOV) 93.3%; (validation standard MOV) 104.5%; (validation standard ULOV) 98.4%. The “Autosampler (72h, 4°C) Accuracy [%]” value amounted to 99.5% (validation standard 2xLLOV), 92.3% (validation standard LLOV), 100.5% (validation standard MOV) and 98.0% (validation standard ULOV).

As for `Cc1nc(Nc2ncc(C(=O)Nc3c(C)cccc3Cl)s2)cc(N2CCN(CCO)CC2)n1` [Dasatinib], the “Autosampler (24h, 4°C) Accuracy [%]” value reads like this: (validation standard 2xLLOV) 102.9%; (validation standard LLOV) 116.5%; (validation standard MOV) 102.8%; (validation standard ULOV) 102.6%. Further, the “Autosampler (72h, 4°C) Accuracy [%]” value (validation standard 2xLLOV) is recorded as 106.3%; the “Autosampler (72h, 4°C) Accuracy [%]” value (validation standard LLOV) stood at 114.9%; the “Autosampler (72h, 4°C) Accuracy [%]” value (validation standard MOV) is recorded as 99.0%; the “Autosampler (72h, 4°C) Accuracy [%]” value (validation standard ULOV) is on record as 101.0%.

For `COC(=O)N[C@@H](C)CNc1nccc(-c2cn(C(C)C)nc2-c2cc(Cl)cc(NS(C)(=O)=O)c2F)n1` [Encorafenib], the “Autosampler (24h, 4°C) Accuracy [%]” value by setting is: (validation standard 2xLLOV) 102.4%; (validation standard LLOV) 87.7%; (validation standard MOV) 112.5%; (validation standard ULOV) 100.5%. Besides, the “Autosampler (72h, 4°C) Accuracy [%]” value runs as follows: (validation standard 2xLLOV) 102.6%; (validation standard LLOV) 98.2%; (validation standard MOV) 110.5%; (validation standard ULOV) 102.4%.

In the case of `CNC(=O)c1ccc(N2C(=S)N(c3ccc(C#N)c(C(F)(F)F)c3)C(=O)C2(C)C)cc1F` [Enzalutamide], the “Autosampler (24h, 4°C) Accuracy [%]” value (validation standard 2xLLOV) is 100.5%; the “Autosampler (24h, 4°C) Accuracy [%]” value (validation standard LLOV) worked out at 89.9%; the “Autosampler (24h, 4°C) Accuracy [%]” value (validation standard MOV) is reported as 108.0%; the “Autosampler (24h, 4°C) Accuracy [%]” value (validation standard ULOV) turned out to be 101.7%. Moreover, the “Autosampler (72h, 4°C) Accuracy [%]” value runs as follows: (validation standard 2xLLOV) 102.2%; (validation standard LLOV) 91.3%; (validation standard MOV) 105.7%; (validation standard ULOV) 103.3%.

For the compound `C#Cc1cccc(Nc2ncnc3cc(OCCOC)c(OCCOC)cc23)c1` [Erlotinib], the “Autosampler (24h, 4°C) Accuracy [%]” value reads like this: (validation standard 2xLLOV) 102.3%; (validation standard MOV) 103.3%; (validation standard ULOV) 103.4%. The “Autosampler (72h, 4°C) Accuracy [%]” value runs as follows: (validation standard 2xLLOV) 98.1%; (validation standard LLOV) 103.9%; (validation standard MOV) 98.3%; (validation standard ULOV) 102.9%.

Take `COc1cc2ncnc(Nc3ccc(F)c(Cl)c3)c2cc1OCCCN1CCOCC1` [Gefitinib]: the “Autosampler (24h, 4°C) Accuracy [%]” value was 102.3% (validation standard 2xLLOV), 91.6% (validation standard LLOV), 105.6% (validation standard MOV) and 96.7% (validation standard ULOV). For the same compound, the “Autosampler (72h, 4°C) Accuracy [%]” value is recorded as 98.5% (validation standard 2xLLOV), 90.7% (validation standard LLOV), 102.2% (validation standard MOV) and 97.0% (validation standard ULOV).

In the case of `Cc1ccc(NC(=O)c2ccc(CN3CCN(C)CC3)cc2)cc1Nc1nccc(-c2cccnc2)n1` [Imatinib], the “Autosampler (24h, 4°C) Accuracy [%]” value by setting is: (validation standard 2xLLOV) 115.2%; (validation standard LLOV) 102.3%; (validation standard MOV) 108.3%; (validation standard ULOV) 95.3%. Moreover, the “Autosampler (72h, 4°C) Accuracy [%]” value is 116.1% (validation standard 2xLLOV), 103.7% (validation standard LLOV), 101.7% (validation standard MOV) and 95.2% (validation standard ULOV).

As to `CS(=O)(=O)CCNCc1ccc(-c2ccc3ncnc(Nc4ccc(OCc5cccc(F)c5)c(Cl)c4)c3c2)o1` [Lapatinib], the “Autosampler (24h, 4°C) Accuracy [%]” value runs as follows: (validation standard 2xLLOV) 99.4%; (validation standard LLOV) 92.7%; (validation standard MOV) 103.2%; (validation standard ULOV) 99.7%. The “Autosampler (72h, 4°C) Accuracy [%]” value (validation standard 2xLLOV) was 102.1%; the “Autosampler (72h, 4°C) Accuracy [%]” value (validation standard LLOV) was 94.4%; the “Autosampler (72h, 4°C) Accuracy [%]” value (validation standard MOV) was determined as 101.5%; the “Autosampler (72h, 4°C) Accuracy [%]” value (validation standard ULOV) was 98.8%.

As to `Nc1cccc2c1CN(C1CCC(=O)NC1=O)C2=O` (centres unmarked) [Lenalidomide], the “Autosampler (24h, 4°C) Accuracy [%]” value amounted to 117.5% (validation standard 2xLLOV), 80.7% (validation standard LLOV), 107.0% (validation standard MOV) and 100.8% (validation standard ULOV). The “Autosampler (72h, 4°C) Accuracy [%]” value is given as 109.8% (validation standard 2xLLOV), 95.6% (validation standard LLOV), 100.0% (validation standard MOV) and 98.9% (validation standard ULOV).

As for `COc1cc2nccc(Oc3ccc(NC(=O)NC4CC4)c(Cl)c3)c2cc1C(N)=O` [Lenvatinib], the “Autosampler (24h, 4°C) Accuracy [%]” value (validation standard 2xLLOV) is given as 102.4%; the “Autosampler (24h, 4°C) Accuracy [%]” value (validation standard LLOV) stood at 110.0%; the “Autosampler (24h, 4°C) Accuracy [%]” value (validation standard MOV) stood at 100.6%; the “Autosampler (24h, 4°C) Accuracy [%]” value (validation standard ULOV) stood at 102.6%. Besides, the “Autosampler (72h, 4°C) Accuracy [%]” value is given as 97.9% (validation standard 2xLLOV), 103.7% (validation standard LLOV), 98.6% (validation standard MOV) and 102.7% (validation standard ULOV).
